Laboratory results taken from patent publication US20240208954A1, “OXADIAZOLE COMPOUND, PREPARATION METHOD THEREFOR, PHARMACEUTICAL COMPOSITION AND USE THEREOF” (SHANGHAI INSTITUTE OF MATERIA MEDICA, CHINESE ACADEMY OF …, priority 2020, published 2024).
Several values for one entry are separate records, joined by “and”; a condition that tells them apart may be missing. Equal values may be shown once. Read-outs that look alike come from different tables or passages of the source.

Assay: Preliminary assessment of pharmacokinetics in mice
Type: in vivo, CD-1 mice
Procedure: Dosing Regimen 9 CD-1 mice, male, weighing 20-26 g, were randomly divided into 3 groups with 3 mice in each group. The test compounds were administered intragastric, intravenously or intraperitoneally according to the following protocol. The mice were fasted for 12 h before the test and drank water freely. Food was consumed uniformly 2 h after administration. [table] The intragastric administration solution was prepared with DMSO/0.5% HPMC(5/95, v/v) to the final concentration. Intravenous and intraperitoneal administration solution was formulated with DMSO/PEG300/EtOH/NaCl(5/40/5/50, v/v/v). The sample of the administration solution was left (50 μL of the solution was mixed with 50 μL of DMSO before and after the administration, respectively) for test. The drug was given according to the above dose, the time of administration was recorded, and 20 μL of blood was taken from the femoral plexus of mice at the above set time points and placed in heparinized tubes. The blood was immediately centrifuged at 11000 rpm for 5 min. 10 μL of plasma was immediately and accurately sucked into a centrifuge tube prefilled with 100 μL of PK-IS solution (prepared with methanol: acetonitrile (1:1,v/v)), well mixed, and freezed at −20° C. for test.

For CC(C)Oc1ccc(-c2nc(-c3ccc(CN4CC(C(=O)O)C4)c4ccccc34)no2)cc1C#N.Cl [Compound A1, 1-((4-(5-(3-cyano-4-isopropoxyphenyl)-1,2,4-oxadiazol-3-yl)naphthalen-1-yl)methyl) azetidine-3-carboxylic acid hydrochloric acid], the “Concentration of A1 Drug in Plasma of Mice” value (shortened to “Concentration of A1 Drug”) (intraperitoneal injection 20 mg/kg, 0.05 h, individual animals 4-6, 20 mg/kg) was 1105 ng/mL and 473 ng/mL and 715 ng/mL, the “Concentration of A1 Drug” value (intraperitoneal injection 20 mg/kg, 0.25 h, individual animals 4-6, 20 mg/kg) was 827 ng/mL and 1507 ng/mL and the “Concentration of A1 Drug” value (intraperitoneal injection 20 mg/kg, 0.75 h, individual animals 4-6, 20 mg/kg) was 1206 ng/mL and 1534 ng/mL and 3318 ng/mL. For the same molecule, the “Concentration of A1 Drug” value (intraperitoneal injection 20 mg/kg, 2.00 h, individual animals 4-6, 20 mg/kg) was 516 ng/mL and 1443 ng/mL and 4405 ng/mL, the “Concentration of A1 Drug” value (intraperitoneal injection 20 mg/kg, 4.00 h, individual animals 4-6, 20 mg/kg) was 376 ng/mL and 201 ng/mL and 535 ng/mL and the “Concentration of A1 Drug” value (intraperitoneal injection 20 mg/kg, 8.00 h, individual animals 4-6, 20 mg/kg) was 273 ng/mL and 78.2 ng/mL and 119 ng/mL. The “Concentration of A1 Drug” value (intraperitoneal injection 20 mg/kg, 24.0 h, individual animals 4-6, 20 mg/kg) was 86.9 ng/mL and 26.5 ng/mL and 35.0 ng/mL, the concentration at 0.25 h (male, CD-1, mouse, plasma, intraperitoneal, 20 mg/kg, title: intraperitoneal 20 mg/kg, 0.25 h, mean, read-out: Concentration of A1 Drug in Plasma of Mice) was 1740 ng/mL and the concentration at 0.5 h (male, CD-1, mouse, plasma, intraperitoneal, 20 mg/kg, title: intraperitoneal 20 mg/kg, 0.50 h, mean, read-out: Concentration of A1 Drug in Plasma of Mice) was 2160 ng/mL. The concentration at 1 h (male, CD-1, mouse, plasma, intraperitoneal, 20 mg/kg, title: intraperitoneal 20 mg/kg, 1.00 h, mean, read-out: Concentration of A1 Drug in Plasma of Mice) was 2600 ng/mL, the concentration at 2 h (male, CD-1, mouse, plasma, intraperitoneal, 20 mg/kg, title: intraperitoneal 20 mg/kg, 2.00 h, mean, read-out: Concentration of A1 Drug in Plasma of Mice) was 1180 ng/mL and the concentration at 4 h (male, CD-1, mouse, plasma, intraperitoneal, 20 mg/kg, title: intraperitoneal 20 mg/kg, 4.00 h, mean, read-out: Concentration of A1 Drug in Plasma of Mice) was 142 ng/mL. The concentration at 8 h (male, CD-1, mouse, plasma, intraperitoneal, 20 mg/kg, title: intraperitoneal 20 mg/kg, 8.00 h, mean, read-out: Concentration of A1 Drug in Plasma of Mice) was 24.6 ng/mL, the concentration at 24 h (male, CD-1, mouse, plasma, intraperitoneal, 20 mg/kg, title: intraperitoneal 20 mg/kg, 24.0 h, individual animals 1-3, read-out: Concentration of A1 Drug in Plasma of Mice) was 4.8 ng/mL and the concentration at 24 h (male, CD-1, mouse, plasma, intraperitoneal, 20 mg/kg, title: intraperitoneal 20 mg/kg, 24.0 h, mean, read-out: Concentration of A1 Drug in Plasma of Mice) was 4.13 ng/mL. For the same molecule, the concentration at 0.05 h (male, CD-1, mouse, plasma, ip, 20 mg/kg, intraperitoneal injection 20 mg/kg, 0.05 h, mean, read-out: Concentration of A1 Drug in Plasma of Mice) was 764 ng/mL, the concentration at 0.25 h (male, CD-1, mouse, plasma, ip, 20 mg/kg, intraperitoneal injection 20 mg/kg, 0.25 h, individual animals 4-6, read-out: Concentration of A1 Drug in Plasma of Mice) was 1170 ng/mL and the concentration at 0.25 h (male, CD-1, mouse, plasma, ip, 20 mg/kg, intraperitoneal injection 20 mg/kg, 0.25 h, mean, read-out: Concentration of A1 Drug in Plasma of Mice) was 1170 ng/mL. The concentration at 0.75 h (male, CD-1, mouse, plasma, ip, 20 mg/kg, intraperitoneal injection 20 mg/kg, 0.75 h, mean, read-out: Concentration of A1 Drug in Plasma of Mice) was 2020 ng/mL, the concentration at 2 h (male, CD-1, mouse, plasma, ip, 20 mg/kg, intraperitoneal injection 20 mg/kg, 2.00 h, mean, read-out: Concentration of A1 Drug in Plasma of Mice) was 2120 ng/mL and the concentration at 4 h (male, CD-1, mouse, plasma, ip, 20 mg/kg, intraperitoneal injection 20 mg/kg, 4.00 h, mean, read-out: Concentration of A1 Drug in Plasma of Mice) was 370 ng/mL. The concentration at 8 h (male, CD-1, mouse, plasma, ip, 20 mg/kg, intraperitoneal injection 20 mg/kg, 8.00 h, mean, read-out: Concentration of A1 Drug in Plasma of Mice) was 157 ng/mL, the concentration at 24 h (male, CD-1, mouse, plasma, ip, 20 mg/kg, intraperitoneal injection 20 mg/kg, 24.0 h, mean, read-out: Concentration of A1 Drug in Plasma of Mice) was 49.5 ng/mL and the concentration at 0.05 h (male, CD-1, mouse, plasma, po, 2 mg/kg, title: oral 2 mg/kg, 0.05 h, individual animals 4-6, read-out: Concentration of A1 Drug in Plasma of Mice) was 1790 ng/mL. The concentration at 0.05 h (male, CD-1, mouse, plasma, po, 2 mg/kg, title: oral 2 mg/kg, 0.05 h, mean, read-out: Concentration of A1 Drug in Plasma of Mice) was 1940 ng/mL, the concentration at 0.25 h (male, CD-1, mouse, plasma, po, 2 mg/kg, title: oral 2 mg/kg, 0.25 h, individual animals 4-6, read-out: Concentration of A1 Drug in Plasma of Mice) was 1040 ng/mL and the concentration at 0.25 h (male, CD-1, mouse, plasma, po, 2 mg/kg, title: oral 2 mg/kg, 0.25 h, mean, read-out: Concentration of A1 Drug in Plasma of Mice) was 878 ng/mL. It also gave a concentration at 0.75 h (male, CD-1, mouse, plasma, po, 2 mg/kg, title: oral 2 mg/kg, 0.75 h, individual animals 4-6, read-out: Concentration of A1 Drug in Plasma of Mice) of 178 ng/mL and a concentration at 0.75 h (male, CD-1, mouse, plasma, po, 2 mg/kg, title: oral 2 mg/kg, 0.75 h, mean, read-out: Concentration of A1 Drug in Plasma of Mice) of 169 ng/mL.
